Where two headings read alike, the source gives them in different places.
Tests used:
[1] = single agent panobinostat; cited from earlier work
[2] = patients with relapsed multiple myeloma; cited from earlier work
[3] = single agent vorinostat; cited from earlier work
cancer cells = details: cited from earlier work
miR-29b [4] = details: cited from earlier work
AML = test: Clinical response; assay type: in vivo, human; details: of 13 patients enrolled, AR-42 followed by decitabine; responses all in DL3
[5] = Toxicity and dose limiting toxicity; assay type: in vivo, human; details: for dose limiting toxicities (DLTs): cycle 1
[6] = Plasma pharmacokinetics of AR-42 in AML patients; assay type: in vivo, human; details: for Tmax: median (SD)
miR-29b [7] = tested on: miR-29b
AML cell lines = details: cited from earlier work
[8] = AR-42 followed by decitabine, all dose levels, 13 AML patients
[9] = 20 mg (day 1, 3, 5), Day 1, cycle 1, plasma, geometric mean (SD)
[10] = 20 mg (day 1, 3, 5), Day 5, cycle 1, plasma, geometric mean (SD)
[11] = 40 mg (day 1, 3, 4, 5), Day 1, cycle 1, plasma, geometric mean (SD)
[12] = 40 mg (day 1, 3, 4, 5), Day 5, cycle 1, plasma, geometric mean (SD)
[13] = 40 mg (day 1, 3, 5), Day 1, cycle 1, plasma, geometric mean (SD)
[14] = 40 mg (day 1, 3, 5), Day 5, cycle 1, plasma, geometric mean (SD)

Compound: Cc1[nH]c2ccccc2c1CCNCc1ccc(/C=C/C(=O)NO)cc1 [panobinostat]
- patients who experienced fatigue [1]: 47.4%

Compound: Cn1cc(CNCC2CCN(c3ncc(C(=O)NO)cn3)CC2)c2ccccc21 [quisinostat]
- cardiac events [2]: grade 3 and 4 cardiac events

Compound: O=C(CCCCCCC(=O)Nc1ccccc1)NO [vorinostat]
- patients who experienced fatigue [3]: 52%

Compound: AR-42
- IC50 (cancer cells): submicromolar
- miR-29b expression (miR-29b [4]; AML cells, 1 μM AR-42, after 24 h): miR-29b induction
- miR-29b expression (miR-29b [4]; Kasumi-1 AML cells, in vitro): upregulated
- miR-29b transcription (miR-29b [4]; in vitro): increase
- number of patients who achieved a CRi (AML): 2
- patients with worsening hypertension ([5]; AR-42 followed by decitabine, 13 AML patients): 4
- Number of Patients with grade ≥ 3 in cycles 1 and 2: Alanine aminotransferase increased [5, 8]: 1
- Number of Patients with grade ≥ 3 in cycles 1 and 2: Alkalosis [5, 8]: 1
- Number of Patients with grade ≥ 3 in cycles 1 and 2: Aspartate aminotransferase increased [5, 8]: 2
- Number of Patients with grade ≥ 3 in cycles 1 and 2: Blood bilirubin increased [5, 8]: 1
- Number of Patients with grade ≥ 3 in cycles 1 and 2: Cardiac troponin increased [5, 8]: 1
- Number of Patients with grade ≥ 3 in cycles 1 and 2: Catheter-related infection [5, 8]: 2
- Number of Patients with grade ≥ 3 in cycles 1 and 2: Fall [5, 8]: 1
- Number of Patients with grade ≥ 3 in cycles 1 and 2: Febrile neutropenia [5, 8]: 9
- Number of Patients with grade ≥ 3 in cycles 1 and 2: Heart failure [5, 8]: 1
- Number of Patients with grade ≥ 3 in cycles 1 and 2: Hyperglycemia [5, 8]: 3
- Number of Patients with grade ≥ 3 in cycles 1 and 2: Hypertension [5, 8]: 4
- Number of Patients with grade ≥ 3 in cycles 1 and 2: Hyperuricemia [5, 8]: 1
- Number of Patients with grade ≥ 3 in cycles 1 and 2: Hypoalbuminemia [5, 8]: 1
- Number of Patients with grade ≥ 3 in cycles 1 and 2: Hypokalemia [5, 8]: 3
- Number of Patients with grade ≥ 3 in cycles 1 and 2: Hyponatremia [5, 8]: 5
- Number of Patients with grade ≥ 3 in cycles 1 and 2: Hypophosphatemia [5, 8]: 2
- Number of Patients with grade ≥ 3 in cycles 1 and 2: Hypotension [5, 8]: 2
- Number of Patients with grade ≥ 3 in cycles 1 and 2: Hypoxia [5, 8]: 6
- Number of Patients with grade ≥ 3 in cycles 1 and 2: Lung infection [5, 8]: 5
- Number of Patients with grade ≥ 3 in cycles 1 and 2: Rash maculo-papular [5, 8]: 1
- Number of Patients with grade ≥ 3 in cycles 1 and 2: Respiratory failure [5, 8]: 1
- Number of Patients with grade ≥ 3 in cycles 1 and 2: Sepsis [5, 8]: 3
- Number of Patients with grade ≥ 3 in cycles 1 and 2: Sinus tachycardia [5, 8]: 1
- Number of Patients with grade ≥ 3 in cycles 1 and 2: Syncope [5, 8]: 1
- dose limiting toxicities (DLTs) ([5]; DL1: AR-42 20 mg daily days 1, 3, 5, then decitabine, 3 patients): no DLTs
- dose limiting toxicities (DLTs) ([5]; DL2: AR-42 40 mg daily days 1, 3, 5, then decitabine, 3 patients): no DLTs
- dose limiting toxicities (DLTs) ([5]; DL3: AR-42 40 mg daily days 1, 3, 4, 5, then decitabine): One DLT of polymicrobial sepsis and multi-organ failure
- patients who also experienced a grade 3 or 4 infection ([5]; of the six patients with neutropenia in cycle 1): 4
- cardiac toxicities ([5]; patients treated with AR-42): minimal cardiac toxicities
- AUC0–4 [6, 9]: 1.59 (2.13) μM h
- AUC0–∞ [6, 9]: 1.77 (2.34) μM h
- Cl/F (apparent oral clearance) [6, 9]: 36.11 (114.88) L/h
- T1/2 [6, 9]: 7.36 (0.42) h
- Vz/F (apparent volume of distribution) [6, 9]: 381.33 (1238.57) L
- Tmax ([6]; 20 mg (day 1, 3, 5), Day 1, cycle 1, plasma): 2.00 (1.32) h
- AUC0–4 [6, 10]: 4.19 (0.54) μM h
- AUC0–∞ [6, 10]: 4.63 (0.71) μM h
- Cl/F (apparent oral clearance) [6, 10]: 13.84 (2.18) L/h
- Cmax [6, 10]: 350 nM
- T1/2 [6, 10]: 6.91 (1.11) h
- Vz/F (apparent volume of distribution) [6, 10]: 137.94 (14.39) L
- Tmax ([6]; 20 mg (day 1, 3, 5), Day 5, cycle 1, plasma): 2.00 (1.32) h
- AUC0–4 [6, 11]: 11.33 (3.54) μM h
- AUC0–∞ [6, 11]: 12.22 (4.24) μM h
- Cl/F (apparent oral clearance) [6, 11]: 10.48 (2.98) L/h
- Cmax [6, 11]: 1010 nM
- T1/2 [6, 11]: 7.63 (1.14) h
- Vz/F (apparent volume of distribution) [6, 11]: 120.53 (35.87) L
- Tmax ([6]; 40 mg (day 1, 3, 4, 5), Day 1, cycle 1, plasma): 2.00 (2.36) h
- AUC0–4 [6, 12]: 11.13 (3.36) μM h
- AUC0–∞ [6, 12]: 14.42 (7.91) μM h
- Cl/F (apparent oral clearance) [6, 12]: 8.88 (3.23) L/h
- Cmax [6, 12]: 960 nM
- T1/2 [6, 12]: 9.98 (6.79) h
- Vz/F (apparent volume of distribution) [6, 12]: 127.81 (54.36) L
- Tmax ([6]; 40 mg (day 1, 3, 4, 5), Day 5, cycle 1, plasma): 4.00 (2.60) h
- AUC0–4 [6, 13]: 7.20 (1.06) μM h
- AUC0–∞ [6, 13]: 7.90 (1.10) μM h
- Cl/F (apparent oral clearance) [6, 13]: 16.22 (2.15) L/h
- Cmax [6, 13]: 710 nM
- T1/2 [6, 13]: 6.63 (0.29) h
- Vz/F (apparent volume of distribution) [6, 13]: 155.67 (27.03) L
- Tmax ([6]; 40 mg (day 1, 3, 5), Day 1, cycle 1, plasma): 2.00 (1.15) h
- AUC0–4 [6, 14]: 6.94 (0.64) μM h
- AUC0–∞ [6, 14]: 7.71 (1.10) μM h
- Cl/F (apparent oral clearance) [6, 14]: 16.61 (2.22) L/h
- Cmax [6, 14]: 860 nM
- T1/2 [6, 14]: 6.93 (1.26) h
- Vz/F (apparent volume of distribution) [6, 14]: 166.11 (9.73) L
- Tmax ([6]; 40 mg (day 1, 3, 5), Day 5, cycle 1, plasma): 1.50 (0.29) h
- Cmax ([6]; read-out: Cmax values, DL1, days 1 and 5): 150 to 350 nM
- Cmax ([6]; read-out: Cmax values, DL2, days 1 and 5): 710 to 860 nM
- Cmax ([6]; read-out: Cmax values, DL3, days 1 and 5): 960 to 1010 nM
- increase of at least 100% in miR-29b expression (miR-29b [7]; DL1: AR-42 20 mg days 1, 3, 5, day 5 of cycle 1 over baseline): not observed
- increase in miR-29b expression of at least 100% (miR-29b [7]; DL2: AR-42 40 mg days 1, 3, 5, day 5 of cycle 1 over baseline): not observed
- increase in miR-29b expression (miR-29b [7]; DL3: AR-42 40 mg days 1, 3, 4, 5, day 5 of cycle 1 over baseline): not observed
- doubling in either the mature or primary miR at day 5 prior to decitabine administration (miR-29b [7]; all dose levels, current schedule): did not observe a doubling
- correlation between miR-29b ΔΔCT values and Cmax (miR-29b [7]; human, in vivo): weak correlation
- apoptosis (AML cell lines; AML cell lines): dose dependent apoptosis
- effect on cell cycle (AML cell lines; AML cell lines): cell cycle arrest at both S and G2/M phases
- anti-leukemic activity (AML cell lines; sequential administration of AR-42 followed by decitabine, compared to either drug alone): stronger anti-leukemic activity
